From patent US9382254B2, “Compounds and pharmaceutical compositions thereof for the treatment of cystic fibrosis” (Galapagos NV, priority 2013, dated 2016)

Columns and labels:
Assay type in all cases: cell-based
CFTR G551D mutant = target: T1, CFTR G551D mutant (Homo sapiens, UniProt P13569, G551D); experiment: YFP-halide influx assay for the CFTR-G551D mutation; conditions: HEK293 cells, forskolin 10.67 μM
T1 construct: expressed in transfected cells; host or cells: HEK293 (reverse transfection with plasmid)
Procedure, shortened: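 Channel opening potentiation measured as 1−F/F0, where F is YFP fluorescence 7 s after iodide injection and F0 before; EC50 taken from concentration plot. Cells: HEK293 transiently expressing CFTR G551D plus halide-sensitive YFP (H148Q, I152L, F47L), 24 h at 37 °C, 5% CO2.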

CFTR-G1349D = target: T2, CFTR-G1349D (Homo sapiens, UniProt P13569, G1349D); experiment: YFP-halide influx assay for the CFTR-G1349D
T2 construct: expressed in transfected cells
Source text: (§1) The YFP halide influx assay measures the functionality of the cystic fibrosis Transmembrane Conductance regulator (CFTR) channels. The assay is used to evaluate the capacity of compounds to increase the channel opening of existing mutant CFTR channels in the membrane. It makes use of the observation that the yellow fluorescent protein (YFP) variant YFP H148Q, I152L, […] has its fluorescence substantially quenched by halide ions like Cl^− and I^−. (Galietta, Haggie, & Verkman, 2001)
(§2) For this purpose, HEK293-cells are seeded in 96 well plates. During seeding, the cells are reverse-transfected with plasmid vectors that direct the expression of the CFTR G551D mutant and of the YFP reporter. Cells are incubated at 37° C., 5% CO2 for 24 hours so as to allow for sufficient expression of the CFTR protein.
(§3) The I^−-induced quenching of fluorescence is recorded immediately after injection of I^− for 7 seconds. The capacity of a compound to increase the channel opening is directly correlated with the decrease in fluorescence, and is expressed as (1-(fluorescence after 7 seconds (F)/fluorescence before injection (F0))) and an EC50 can be derived from a (1-F/F0) vs compound concentration plot.
(§4) Similar YHA assays were developed for other channel gating defective or channel conductance defective CFTR mutants to determine effect of compound on channel activity. Examples of mutants are G178R, G1349D, S549N, R117H, R334W. This assay is also used for additional class I CFTR mutants, including G542X, W1282X; class II mutants including N1303K, and for class III mutants including S1251N.

CFTR ΔF508 mutant = target: T3, CFTR ΔF508 mutant (Homo sapiens, UniProt P13569, DEL508-508); experiment: YFP-halide influx assay for the CFTR-ΔF508 mutation (384 well, FDSS/μCell); conditions: CFBE41o- cells, CFTR-ΔF508, 1×D-PBS, fluorescence after 36 seconds
T3 construct: expressed in transfected cells; host or cells: CFBE41o- (adenoviral transduction)
Procedure, shortened: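 Potentiator read-out as 1−F/F0, F taken 36 s after iodide addition, EC50 fitted against compound concentration. Cells: CFBE41o- expressing ΔF508 CFTR plus halide-sensitive YFP via adenovirus, rescued by 27 °C for 24 h or 24 h modulator at 37 °C.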

CFTR-G178R = target: T4, CFTR-G178R (Homo sapiens, UniProt P13569, G178R); experiment: YFP-halide influx assay for the CFTR-G178R
T4 construct: expressed in transfected cells
Source text: as §1, §2, §3, §4

CFTR-S549N = target: T5, CFTR-S549N (Homo sapiens, UniProt P13569, S549N); experiment: YFP-halide influx assay for the CFTR-S549N
T5 construct: expressed in transfected cells
Source text: as §1, §2, §3, §4

CFTR-R117H = target: T6, CFTR-R117H (Homo sapiens, UniProt P13569, R117H); experiment: YFP-halide influx assay for the CFTR-R117H
T6 construct: expressed in transfected cells
Source text: as §1, §2, §3, §4

T3 sequence (P13569 with tags, fused parts or gaps DEL508-508): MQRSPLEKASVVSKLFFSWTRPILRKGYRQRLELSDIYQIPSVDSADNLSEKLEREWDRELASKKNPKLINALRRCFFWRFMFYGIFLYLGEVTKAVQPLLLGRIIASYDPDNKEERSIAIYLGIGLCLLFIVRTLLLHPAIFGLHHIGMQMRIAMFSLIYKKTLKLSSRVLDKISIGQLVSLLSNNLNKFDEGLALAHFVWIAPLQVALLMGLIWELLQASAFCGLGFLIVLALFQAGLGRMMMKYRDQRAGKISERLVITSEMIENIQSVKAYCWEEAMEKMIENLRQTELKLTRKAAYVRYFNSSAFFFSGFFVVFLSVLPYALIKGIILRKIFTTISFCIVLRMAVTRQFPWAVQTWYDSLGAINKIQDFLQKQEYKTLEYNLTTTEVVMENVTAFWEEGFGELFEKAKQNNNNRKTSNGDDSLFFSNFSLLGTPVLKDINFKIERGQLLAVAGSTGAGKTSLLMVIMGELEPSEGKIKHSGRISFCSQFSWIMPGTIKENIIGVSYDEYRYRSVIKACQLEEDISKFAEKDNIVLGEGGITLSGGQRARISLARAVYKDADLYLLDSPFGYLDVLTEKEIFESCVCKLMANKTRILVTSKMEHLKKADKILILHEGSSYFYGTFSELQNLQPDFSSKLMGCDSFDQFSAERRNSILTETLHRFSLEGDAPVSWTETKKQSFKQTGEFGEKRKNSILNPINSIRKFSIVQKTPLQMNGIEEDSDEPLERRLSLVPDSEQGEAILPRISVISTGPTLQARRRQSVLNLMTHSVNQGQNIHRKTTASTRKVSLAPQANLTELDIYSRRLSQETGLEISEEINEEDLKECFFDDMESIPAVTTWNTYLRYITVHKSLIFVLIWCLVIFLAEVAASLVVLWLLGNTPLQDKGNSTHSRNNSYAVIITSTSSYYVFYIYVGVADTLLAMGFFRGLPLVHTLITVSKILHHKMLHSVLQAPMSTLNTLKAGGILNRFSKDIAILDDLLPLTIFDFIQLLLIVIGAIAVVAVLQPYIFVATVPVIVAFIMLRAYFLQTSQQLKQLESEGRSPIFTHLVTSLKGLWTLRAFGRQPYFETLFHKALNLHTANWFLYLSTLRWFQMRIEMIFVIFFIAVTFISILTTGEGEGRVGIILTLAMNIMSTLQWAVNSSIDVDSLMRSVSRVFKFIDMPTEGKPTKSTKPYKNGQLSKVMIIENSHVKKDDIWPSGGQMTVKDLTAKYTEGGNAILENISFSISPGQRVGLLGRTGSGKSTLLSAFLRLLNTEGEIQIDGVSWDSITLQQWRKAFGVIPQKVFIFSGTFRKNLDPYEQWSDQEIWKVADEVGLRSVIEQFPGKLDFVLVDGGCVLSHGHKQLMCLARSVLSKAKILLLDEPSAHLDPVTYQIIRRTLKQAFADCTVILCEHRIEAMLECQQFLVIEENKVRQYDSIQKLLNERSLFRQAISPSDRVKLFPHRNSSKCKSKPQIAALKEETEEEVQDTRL
T2 sequence (P13569 whole entry G1349D): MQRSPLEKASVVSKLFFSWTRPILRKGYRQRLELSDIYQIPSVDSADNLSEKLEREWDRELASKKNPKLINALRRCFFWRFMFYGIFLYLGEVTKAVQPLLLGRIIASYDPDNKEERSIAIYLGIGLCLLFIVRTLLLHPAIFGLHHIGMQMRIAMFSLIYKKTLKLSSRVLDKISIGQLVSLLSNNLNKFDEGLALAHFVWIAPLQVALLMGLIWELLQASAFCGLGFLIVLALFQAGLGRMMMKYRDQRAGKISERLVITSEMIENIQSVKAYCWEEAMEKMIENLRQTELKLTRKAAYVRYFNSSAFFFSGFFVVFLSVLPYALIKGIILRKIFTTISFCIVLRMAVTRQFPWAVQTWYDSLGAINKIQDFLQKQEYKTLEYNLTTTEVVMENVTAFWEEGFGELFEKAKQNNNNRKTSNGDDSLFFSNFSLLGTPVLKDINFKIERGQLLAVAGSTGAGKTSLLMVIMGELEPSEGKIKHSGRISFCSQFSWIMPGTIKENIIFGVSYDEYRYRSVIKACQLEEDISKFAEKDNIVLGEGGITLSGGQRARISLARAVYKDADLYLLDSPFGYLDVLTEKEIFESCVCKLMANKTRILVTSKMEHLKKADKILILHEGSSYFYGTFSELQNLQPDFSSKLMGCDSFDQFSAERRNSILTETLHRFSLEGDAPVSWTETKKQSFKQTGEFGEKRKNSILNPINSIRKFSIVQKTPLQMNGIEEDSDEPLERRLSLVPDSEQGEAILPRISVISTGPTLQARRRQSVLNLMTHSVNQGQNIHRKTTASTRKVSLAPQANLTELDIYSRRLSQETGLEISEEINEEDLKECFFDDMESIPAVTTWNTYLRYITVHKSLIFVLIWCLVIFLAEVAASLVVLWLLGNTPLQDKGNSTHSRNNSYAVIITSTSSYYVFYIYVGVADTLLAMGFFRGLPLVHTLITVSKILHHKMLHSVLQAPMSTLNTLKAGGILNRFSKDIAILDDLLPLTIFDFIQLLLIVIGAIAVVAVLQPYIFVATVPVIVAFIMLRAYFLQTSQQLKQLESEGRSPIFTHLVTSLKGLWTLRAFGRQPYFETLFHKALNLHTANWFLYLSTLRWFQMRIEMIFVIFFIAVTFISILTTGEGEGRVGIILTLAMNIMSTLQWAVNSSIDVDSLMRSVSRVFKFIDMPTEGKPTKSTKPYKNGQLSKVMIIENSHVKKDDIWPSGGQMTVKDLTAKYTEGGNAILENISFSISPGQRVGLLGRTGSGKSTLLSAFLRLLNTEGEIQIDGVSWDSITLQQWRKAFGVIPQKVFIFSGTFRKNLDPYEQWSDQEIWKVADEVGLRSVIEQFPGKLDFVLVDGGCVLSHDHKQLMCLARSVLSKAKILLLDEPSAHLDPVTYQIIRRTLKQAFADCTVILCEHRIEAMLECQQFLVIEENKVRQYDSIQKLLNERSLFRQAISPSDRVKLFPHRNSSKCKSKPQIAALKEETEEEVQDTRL
T6 sequence (P13569 whole entry R117H): as the sequence (P13569 whole entry G1349D) above, with R117H, D1349G counted along it
T1 sequence (P13569 whole entry G551D): as the sequence (P13569 whole entry G1349D) above, with G551D, D1349G counted along it
T5 sequence (P13569 whole entry S549N): as the sequence (P13569 whole entry G1349D) above, with S549N, D1349G counted along it
T4 sequence (P13569 whole entry G178R): as the sequence (P13569 whole entry G1349D) above, with G178R, D1349G counted along it

SMILES | EC50 (CFTR G551D mutant) [µM] | EC50 (CFTR-G1349D) [µM] | EC50 (CFTR ΔF508 mutant) [µM] | EC50 (CFTR-G178R) [µM] | EC50 (CFTR-S549N) [µM] | EC50 (CFTR-R117H) [µM]
Cc1ccc(C(F)(F)F)c(S(=O)(=O)c2cc(C(N)=O)c(NC(=O)C(C)(C)O)s2)n1 [Compound 413, 2-[(2-hydroxy-2-methyl-propanoyl)amino]-5-[[6-methyl-3-(trifluoromethyl)-2-pyridyl]sulfonyl] thiophene-3-carboxamide] | 1.48 | 0.134 | 0.0128 | 0.0447 | 0.0647 | 0.0711
COc1cc(C)cc(S(=O)(=O)c2cc(C(N)=O)c(NC(=O)C(C)(C)O)s2)c1 [Compound 416, 2-[(2-hydroxy-2-methyl-propanoyl)amino]-5-(3-methoxy-5-methyl-phenyl)sulfonyl-thiophene-3-carboxamide] | 0.773 | 0.353 | 0.0177 | 0.268 | 1.78 | 0.351
COc1cc(S(=O)(=O)c2cc(C(N)=O)c(NC(=O)C(C)(C)O)s2)c(OC(F)F)cn1 [Compound 418, 5-[[5-(difluoromethoxy)-2-methoxy-4-pyridyl]sulfonyl]-2-[(2-hydroxy-2-methyl-propanoyl)amino] thiophene-3-carboxamide] | 0.39 | 0.0184 | 0.00818 | 0.0144 | 0.184 | 0.192
COc1cc(C#N)cc(S(=O)(=O)c2cc(C(N)=O)c(NC(=O)C(C)(C)O)s2)c1OC(F)F [Compound 419, 5-[5-cyano-2-(difluoromethoxy)-3-methoxy-phenyl]sulfonyl-2-[(2-hydroxy-2-methyl-propanoyl)amino] thiophene-3-carboxamide] | 0.678 | 0.617 | 0.0266 | 0.25 | 0.621 | 0.465
COc1ccc(C(F)(F)F)c(S(=O)(=O)c2cc(C(N)=O)c(NC(=O)C(C)(C)O)s2)n1 [Compound 420, 2-[(2-hydroxy-2-methyl-propanoyl)amino]-5-[[6-methoxy-3-(trifluoromethyl)-2-pyridyl]sulfonyl] thiophene-3-carboxamide] | 0.197 | 0.095 | 0.00805 | 0.11 | 0.146 | 0.0972
CC(C)c1nn(C)cc1S(=O)(=O)c1cc(C(N)=O)c(NC(=O)C(C)(C)O)s1 [Compound 421, 2-[(2-hydroxy-2-methyl-propanoyl)amino]-5-(3-isopropyl-1-methyl-pyrazol-4-yl)sulfonyl-thiophene-3-carboxamide] | 5.53 | 1.54 | 0.069 | 1.59 | 1.11 | 1.93
CC(C)(O)C(=O)Nc1sc(S(=O)(=O)c2ccc(C(F)(F)F)c(F)c2)cc1C(N)=O [Compound 422, 5-[3-fluoro-4-(trifluoromethyl)phenyl]sulfonyl-2-[(2-hydroxy-2-methyl-propanoyl)amino] thiophene-3-carboxamide] | 0.872 | 0.212 | 0.0153 | 0.0644 | 0.542 | 0.448
CC(C)(O)C(=O)Nc1sc(S(=O)(=O)c2ccc(C(F)(F)F)c(Cl)n2)cc1C(N)=O [Compound 423, 5-[[6-chloro-5-(trifluoromethyl)-2-pyridyl]sulfonyl]-2-[(2-hydroxy-2-methyl-propanoyl)amino] thiophene-3-carboxamide] | 0.842 | 1.11 | 0.0109 | 0.162 | 1.91 | 0.249
CC(C)(O)C(=O)Nc1sc(S(=O)(=O)c2nc(Cl)ccc2C(F)(F)F)cc1C(N)=O [Compound 424, 5-[[6-chloro-3-(trifluoromethyl)-2-pyridyl]sulfonyl]-2-[(2-hydroxy-2-methyl-propanoyl)amino] thiophene-3-carboxamide] | 0.403 | 2.43 | 0.00319 | 0.178 | 0.332 | 0.0973
